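Exposure lasted 48 hours, with cells grown in 96-well plates and compounds tested at five concentrations. GI50 marks 50% less growth. TGI: total growth inhibition.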
Legend:
Experiment in all cases: DTP human tumour cell line panel, 48 h
HT29 colon = tested on: HT29 colon
HOP-92 NSCLC = tested on: HOP-92 NSCLC
PC-3 prostate = tested on: PC-3 prostate
SW-620 colon = tested on: SW-620 colon
IGROV1 ovarian = tested on: IGROV1 ovarian
SNB-19 CNS = tested on: SNB-19 CNS
UACC-62 melanoma = tested on: UACC-62 melanoma
HS 578T breast = tested on: HS 578T breast
SF-295 CNS = tested on: SF-295 CNS
HCC-2998 colon = tested on: HCC-2998 colon

Row | SMILES | GI50 (HT29 colon) [µM] | TGI (HT29 colon) [µM] | GI50 (HOP-92 NSCLC) [µM] | TGI (HOP-92 NSCLC) [µM] | GI50 (PC-3 prostate) [µM] | TGI (PC-3 prostate) [µM] | GI50 (SW-620 colon) [µM] | TGI (SW-620 colon) [µM] | GI50 (IGROV1 ovarian) [µM] | TGI (IGROV1 ovarian) [µM] | GI50 (SNB-19 CNS) [µM] | TGI (SNB-19 CNS) [µM] | GI50 (UACC-62 melanoma) [µM] | TGI (UACC-62 melanoma) [µM] | GI50 (HS 578T breast) [µM] | TGI (HS 578T breast) [µM] | GI50 (SF-295 CNS) [µM] | TGI (SF-295 CNS) [µM] | GI50 (HCC-2998 colon) [µM] | TGI (HCC-2998 colon) [µM]
1 | CCN(CC)CCCC(C)Nc1c2ccc(Cl)cc2nc2cc(OC)c(OC)cc12 (stereo not given) | 1.54 | 10.3 | 2.33 | 8.34 | 2.08 | 6.28 | 1.35 | 7.54 | 2.15 | 9.96 | 2.18 | 8.98 | 2.14 | 4.69 | 2.75 | 10.1 | 1.5 | 3.24 | 1.49 | 3
2 | O=C1c2cc(-c3ccccc3)ccc2-c2c1c1ccc([N+](=O)[O-])cc1c(=O)n2CCCBr | > 50 | > 50 | 17.8 | > 50 | > 50 | > 50 | > 50 | > 50 | > 50 | > 50 | > 36.8 | > 50 | 49.4 | > 50 | 10.5 | > 40.7 | > 37.4 | > 50 | > 50 | > 50
3 | CC(=O)OCc1ccc(O)c(C=O)c1 |  | > 100 |  | > 100 |  | > 100 |  | > 100 |  | > 100 |  | > 100 |  | > 100 |  | > 100 |  | > 100 |  | > 100
4 | Cc1ccc(C(=O)N2CCN(C(=O)c3ccc(C)cc3)c3ccccc32)cc1 |  | 21.3 |  | > 61.2 |  | > 100 |  | > 100 |  | > 100 |  | > 100 |  | > 100 |  | 29.8 |  | > 43.1 |  | 40.9
5 | COc1cc2c(cc1OC)C(CC1(O)CCCCC1)N(S(=O)(=O)c1ccc(C)cc1)CC2 (stereo not given) | > 10 | > 10 | > 10 | > 10 | > 10 | > 10 | > 10 | > 10 | > 10 | > 10 | > 10 | > 10 | > 10 | > 10 | > 10 | > 10 | > 10 | > 10 | > 10 | > 10
